Experimental data published in publication PMC4051630, “A Comparison of Protein Kinases Inhibitor Screening Methods Using Both Enzymatic Activity and Binding Affinity Determination” (PLoS ONE, 2014).

Legend:
Experiment in all cases: Differential Scanning Fluorimetry (DSF) Tm shift
Type in all cases: binding
[1] = target: T1, FES Catalytic Domain (Homo sapiens, UniProt P07332); conditions: 2 µM protein, 10 µM inhibitor, average of 3 experiments, each in duplicate
T1 construct: For all of them, we expressed and purified the catalytic domain separately; His-tag; made in house; host or cells: Escherichia coli
T1 sequence (P07332 561-822 limits assumed): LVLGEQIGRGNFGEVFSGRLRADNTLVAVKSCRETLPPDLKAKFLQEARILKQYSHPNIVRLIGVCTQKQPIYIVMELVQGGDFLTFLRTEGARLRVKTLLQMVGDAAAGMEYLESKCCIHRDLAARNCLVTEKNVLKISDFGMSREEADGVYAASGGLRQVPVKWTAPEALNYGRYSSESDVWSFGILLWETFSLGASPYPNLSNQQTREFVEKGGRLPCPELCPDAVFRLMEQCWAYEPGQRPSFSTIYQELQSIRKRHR

[2] = target: SRC Catalytic Domain (Homo sapiens, UniProt P12931); parameters: For all of them, we expressed and purified the catalytic domain separately; His-tag; made in house; host or cells: Escherichia coli; conditions: 2 µM protein, 10 µM inhibitor, average of 3 experiments, each in duplicate
Chain of SRC Catalytic Domain (P12931 270-523 limits assumed): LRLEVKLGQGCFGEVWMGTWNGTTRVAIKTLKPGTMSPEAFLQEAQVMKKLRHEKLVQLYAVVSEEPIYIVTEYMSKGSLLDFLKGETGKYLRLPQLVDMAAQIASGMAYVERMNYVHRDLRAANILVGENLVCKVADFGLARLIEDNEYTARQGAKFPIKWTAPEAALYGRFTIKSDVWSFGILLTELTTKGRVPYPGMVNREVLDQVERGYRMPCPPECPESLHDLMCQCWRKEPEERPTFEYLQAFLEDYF

[3] = target: T2, CHK2 Catalytic Domain (Homo sapiens, UniProt O96017); conditions: 2 µM protein, 10 µM inhibitor, average of 3 experiments, each in duplicate
T2 construct: For all of them, we expressed and purified the catalytic domain separately; His-tag; made in house; host or cells: Escherichia coli
T2 sequence (O96017 220-486 limits assumed): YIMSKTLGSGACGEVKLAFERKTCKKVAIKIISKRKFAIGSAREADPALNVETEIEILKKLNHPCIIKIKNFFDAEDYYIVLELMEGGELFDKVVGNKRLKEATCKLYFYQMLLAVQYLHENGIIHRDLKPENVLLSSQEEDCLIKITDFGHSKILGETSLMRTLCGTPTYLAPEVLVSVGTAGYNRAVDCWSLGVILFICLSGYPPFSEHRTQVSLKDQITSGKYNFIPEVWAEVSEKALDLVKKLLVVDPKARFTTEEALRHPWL

[4] = target: T3, CDK2 + Cyclin E (Homo sapiens, UniProt P24941); conditions: CDK2 + Cyclin E; 2 µM protein, 10 µM inhibitor; average of 3 experiments, each in duplicate
T3 construct: CDK2 (P24941); 1–299; His-tag; made in house; host or cells: Escherichia coli

[5] = target: T4, CDK2 + Cyclin A (Homo sapiens, UniProt P24941); conditions: CDK2 + Cyclin A; 2 µM protein, 10 µM inhibitor; average of 3 experiments, each in duplicate
T4 construct: CDK2 (P24941); 1–299; His-tag; made in house; host or cells: Escherichia coli

[6] = target: T5, PAK7 Catalytic Domain (Homo sapiens, UniProt Q9P286); conditions: 2 µM protein, 10 µM inhibitor, average of 3 experiments, each in duplicate
T5 construct: For all of them, we expressed and purified the catalytic domain separately; His-tag; made in house; host or cells: Escherichia coli
T5 sequence (Q9P286 449-700 limits assumed): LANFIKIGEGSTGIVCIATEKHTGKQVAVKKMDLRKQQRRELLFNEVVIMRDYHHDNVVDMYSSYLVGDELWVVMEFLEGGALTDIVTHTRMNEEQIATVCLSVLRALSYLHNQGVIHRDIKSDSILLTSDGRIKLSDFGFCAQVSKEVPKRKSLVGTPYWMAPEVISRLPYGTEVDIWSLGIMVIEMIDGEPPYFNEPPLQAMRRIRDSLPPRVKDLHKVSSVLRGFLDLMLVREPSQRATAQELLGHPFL

[7] = target: T6, FES Catalytic Domain+SH2 (Homo sapiens, UniProt P07332); conditions: 2 µM protein, 10 µM inhibitor, average of 3 experiments, each in duplicate
T6 construct: for 8, we also made a longer version containing one or more additional domains; His-tag; made in house; host or cells: Escherichia coli
T6 sequence (P07332 448-822 limits assumed): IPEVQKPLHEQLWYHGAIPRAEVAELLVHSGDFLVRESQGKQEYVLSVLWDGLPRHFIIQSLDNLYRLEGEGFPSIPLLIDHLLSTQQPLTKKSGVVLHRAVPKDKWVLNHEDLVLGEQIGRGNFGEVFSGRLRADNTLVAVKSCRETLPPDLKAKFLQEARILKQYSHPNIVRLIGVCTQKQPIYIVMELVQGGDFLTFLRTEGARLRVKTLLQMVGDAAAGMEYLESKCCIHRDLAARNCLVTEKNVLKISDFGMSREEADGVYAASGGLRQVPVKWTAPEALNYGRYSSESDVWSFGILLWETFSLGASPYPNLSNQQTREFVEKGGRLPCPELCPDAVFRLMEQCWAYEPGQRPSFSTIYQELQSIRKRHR

[8] = target: T7, FAK2 Catalytic Domain (Homo sapiens, UniProt Q14289); conditions: 2 µM protein, 10 µM inhibitor, average of 3 experiments, each in duplicate
T7 construct: For all of them, we expressed and purified the catalytic domain separately; His-tag; made in house; host or cells: Escherichia coli
T7 sequence (Q14289 425-683 limits assumed): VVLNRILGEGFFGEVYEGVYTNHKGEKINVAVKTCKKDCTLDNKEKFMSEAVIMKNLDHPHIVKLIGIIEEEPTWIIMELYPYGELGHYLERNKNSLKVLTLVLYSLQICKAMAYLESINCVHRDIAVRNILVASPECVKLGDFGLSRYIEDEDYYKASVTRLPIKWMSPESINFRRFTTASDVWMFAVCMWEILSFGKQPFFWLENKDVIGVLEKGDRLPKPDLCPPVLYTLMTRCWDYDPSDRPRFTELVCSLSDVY

[9] = target: T8, STK3 Catalytic Domain (Homo sapiens, UniProt Q13188); conditions: 2 µM protein, 10 µM inhibitor, average of 3 experiments, each in duplicate
T8 construct: For all of them, we expressed and purified the catalytic domain separately; His-tag; made in house; host or cells: Escherichia coli
T8 sequence (Q13188 27-278 limits assumed): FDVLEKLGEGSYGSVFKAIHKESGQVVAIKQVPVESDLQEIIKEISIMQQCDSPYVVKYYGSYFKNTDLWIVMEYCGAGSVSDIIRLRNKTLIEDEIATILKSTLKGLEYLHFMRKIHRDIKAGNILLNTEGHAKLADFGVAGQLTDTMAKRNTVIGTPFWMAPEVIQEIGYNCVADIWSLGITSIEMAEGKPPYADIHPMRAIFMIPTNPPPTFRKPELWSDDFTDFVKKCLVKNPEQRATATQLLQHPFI

[10] = target: T9, STK3 Catalytic domain+SARAH (Homo sapiens, UniProt Q13188); conditions: 2 µM protein, 10 µM inhibitor, average of 3 experiments, each in duplicate
T9 construct: for 8, we also made a longer version containing one or more additional domains; His-tag; made in house; host or cells: Escherichia coli
T9 sequence (Q13188 1-491): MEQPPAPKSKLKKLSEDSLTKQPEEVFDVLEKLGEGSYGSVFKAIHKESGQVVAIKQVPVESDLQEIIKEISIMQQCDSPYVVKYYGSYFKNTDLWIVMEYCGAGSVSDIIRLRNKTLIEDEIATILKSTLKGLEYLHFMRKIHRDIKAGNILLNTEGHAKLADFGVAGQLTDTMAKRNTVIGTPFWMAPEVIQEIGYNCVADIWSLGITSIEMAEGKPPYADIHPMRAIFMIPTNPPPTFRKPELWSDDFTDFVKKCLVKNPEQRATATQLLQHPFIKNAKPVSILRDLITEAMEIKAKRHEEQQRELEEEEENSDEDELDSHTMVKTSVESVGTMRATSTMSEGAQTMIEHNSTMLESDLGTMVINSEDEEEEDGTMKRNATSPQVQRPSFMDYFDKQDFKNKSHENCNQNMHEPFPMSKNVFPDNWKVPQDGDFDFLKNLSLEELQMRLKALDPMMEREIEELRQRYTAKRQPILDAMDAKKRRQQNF

[11] = target: SRC Catalytic Domain+SH2+SH3 (Homo sapiens, UniProt P12931); conditions: 2 µM protein, 10 µM inhibitor, average of 3 experiments, each in duplicate
Chain of SRC Catalytic Domain+SH2+SH3 (P12931 84-523 limits assumed): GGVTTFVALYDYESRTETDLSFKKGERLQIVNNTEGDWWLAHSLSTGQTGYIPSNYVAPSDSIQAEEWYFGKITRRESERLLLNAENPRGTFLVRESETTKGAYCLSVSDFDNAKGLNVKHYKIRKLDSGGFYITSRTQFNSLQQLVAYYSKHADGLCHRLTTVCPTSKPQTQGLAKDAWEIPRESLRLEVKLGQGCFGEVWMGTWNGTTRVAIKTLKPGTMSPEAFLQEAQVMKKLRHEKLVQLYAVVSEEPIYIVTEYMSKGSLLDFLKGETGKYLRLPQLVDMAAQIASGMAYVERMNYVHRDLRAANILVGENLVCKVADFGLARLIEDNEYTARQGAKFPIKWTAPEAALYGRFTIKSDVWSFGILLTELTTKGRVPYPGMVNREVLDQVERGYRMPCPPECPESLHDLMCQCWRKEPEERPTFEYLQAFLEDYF

[12] = target: T10, DMPK Catalytic Domain (Homo sapiens, UniProt Q09013); conditions: 2 µM protein, 10 µM inhibitor, average of 3 experiments, each in duplicate
T10 construct: For all of them, we expressed and purified the catalytic domain separately; His-tag; made in house; host or cells: Escherichia coli
T10 sequence (Q09013 71-339 limits assumed): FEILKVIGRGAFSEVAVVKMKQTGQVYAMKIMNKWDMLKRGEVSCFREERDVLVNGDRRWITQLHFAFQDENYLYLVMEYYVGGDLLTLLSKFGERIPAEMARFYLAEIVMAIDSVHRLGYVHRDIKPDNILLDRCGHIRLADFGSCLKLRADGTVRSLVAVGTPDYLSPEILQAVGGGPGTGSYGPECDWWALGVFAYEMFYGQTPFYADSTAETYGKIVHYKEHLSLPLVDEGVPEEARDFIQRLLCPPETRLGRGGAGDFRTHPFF

[13] = target: T11, PAK4 Catalytic Domain (Homo sapiens, UniProt O96013); conditions: 2 µM protein, 10 µM inhibitor, average of 3 experiments, each in duplicate
T11 construct: For all of them, we expressed and purified the catalytic domain separately; His-tag; made in house; host or cells: Escherichia coli
T11 sequence (O96013 321-572 limits assumed): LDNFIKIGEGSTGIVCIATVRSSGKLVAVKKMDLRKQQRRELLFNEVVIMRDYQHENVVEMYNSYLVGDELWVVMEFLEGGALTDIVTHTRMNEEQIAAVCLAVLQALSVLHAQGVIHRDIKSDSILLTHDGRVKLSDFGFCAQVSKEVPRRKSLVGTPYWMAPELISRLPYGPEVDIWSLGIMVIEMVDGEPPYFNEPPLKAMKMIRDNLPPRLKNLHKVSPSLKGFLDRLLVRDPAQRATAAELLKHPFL

[14] = target: T12, AKT3 Catalytic Domain (Homo sapiens, UniProt Q9Y243); conditions: 2 µM protein, 10 µM inhibitor, average of 3 experiments, each in duplicate
T12 construct: AKT3 (Q9Y243); CD; His-tag; made in house; host or cells: Escherichia coli
T12 sequence (Q9Y243 122-479): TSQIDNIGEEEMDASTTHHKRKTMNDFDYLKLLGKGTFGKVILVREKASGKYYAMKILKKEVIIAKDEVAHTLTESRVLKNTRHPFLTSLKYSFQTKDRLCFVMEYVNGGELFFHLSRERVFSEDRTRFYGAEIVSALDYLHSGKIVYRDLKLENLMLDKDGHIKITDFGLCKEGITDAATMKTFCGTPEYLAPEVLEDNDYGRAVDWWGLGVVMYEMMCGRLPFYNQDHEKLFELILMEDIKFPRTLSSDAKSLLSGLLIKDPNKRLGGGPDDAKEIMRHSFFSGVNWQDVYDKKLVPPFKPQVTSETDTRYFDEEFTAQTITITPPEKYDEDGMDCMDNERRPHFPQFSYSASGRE

[15] = target: T13, PAK4 Catalytic Domain+PBD (Homo sapiens, UniProt O96013); conditions: 2 µM protein, 10 µM inhibitor, average of 3 experiments, each in duplicate
T13 construct: for 8, we also made a longer version containing one or more additional domains; His-tag; made in house; host or cells: Escherichia coli
T13 sequence (O96013 whole entry, the tested form may be a part): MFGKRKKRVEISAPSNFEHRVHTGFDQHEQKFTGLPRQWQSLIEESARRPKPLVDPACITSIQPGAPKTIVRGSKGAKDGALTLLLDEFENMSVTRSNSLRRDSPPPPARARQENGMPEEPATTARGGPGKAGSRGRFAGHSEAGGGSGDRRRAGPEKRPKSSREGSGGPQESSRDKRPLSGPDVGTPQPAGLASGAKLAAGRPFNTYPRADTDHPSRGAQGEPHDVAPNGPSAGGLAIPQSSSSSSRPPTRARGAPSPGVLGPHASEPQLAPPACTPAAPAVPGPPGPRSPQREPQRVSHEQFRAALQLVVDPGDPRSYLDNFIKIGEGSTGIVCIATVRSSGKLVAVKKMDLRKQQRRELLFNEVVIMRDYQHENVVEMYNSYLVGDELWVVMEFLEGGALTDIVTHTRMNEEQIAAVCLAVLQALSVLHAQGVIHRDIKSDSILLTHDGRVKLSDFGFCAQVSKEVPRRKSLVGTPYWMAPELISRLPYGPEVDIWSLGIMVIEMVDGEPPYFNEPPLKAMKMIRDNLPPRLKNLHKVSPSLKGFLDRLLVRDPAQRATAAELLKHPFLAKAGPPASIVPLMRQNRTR

## COc1cc2ncnc(Nc3ccc(Oc4ccccc4)cc3)c2cc1OC [Src Kinase Inhibitor I]
[1]
  Melting temperature (Tm) shift: 0.1 degrees Celcius
[2]
  Melting temperature (Tm) shift: 2.1 degrees Celcius
[3]
  Melting temperature (Tm) shift: 3.0 degrees Celcius
[4]
  Melting temperature (Tm) shift: 0.2 degrees Celcius
[5]
  Melting temperature (Tm) shift: 0.0 degrees Celcius
[6]
  Melting temperature (Tm) shift: 0.0 degrees Celcius
[7]
  Melting temperature (Tm) shift: 0.1 degrees Celcius
[8]
  Melting temperature (Tm) shift: 0.6 degrees Celcius
[9]
  Melting temperature (Tm) shift: 0.3 degrees Celcius
[10]
  Melting temperature (Tm) shift: 0.1 degrees Celcius
[11]
  Melting temperature (Tm) shift: 1.6 degrees Celcius
[12]
  Melting temperature (Tm) shift: 0.7 degrees Celcius

## Cc1cc(Nc2nc(-c3ccccc3)nc3ccccc23)n[nH]1 [GSK-3 Inhibitor XIII]
[1]
  Melting temperature (Tm) shift: 1.0 degrees Celcius
[13]
  Melting temperature (Tm) shift: 3.0 degrees Celcius
[2]
  Melting temperature (Tm) shift: 1.3 degrees Celcius
[3]
  Melting temperature (Tm) shift: 1.9 degrees Celcius
[14]
  Melting temperature (Tm) shift: 0.2 degrees Celcius
[5]
  Melting temperature (Tm) shift: 0.3 degrees Celcius
[6]
  Melting temperature (Tm) shift: 2.0 degrees Celcius
[15]
  Melting temperature (Tm) shift: 0.8 degrees Celcius
[7]
  Melting temperature (Tm) shift: 0.2 degrees Celcius
[8]
  Melting temperature (Tm) shift: 0.8 degrees Celcius
[9]
  Melting temperature (Tm) shift: 3.7 degrees Celcius
[10]
  Melting temperature (Tm) shift: 0.9 degrees Celcius
[11]
  Melting temperature (Tm) shift: 1.6 degrees Celcius
[12]
  Melting temperature (Tm) shift: 0.5 degrees Celcius

## COc1cc2ncnc(Nc3ccc(Cl)cc3Cl)c2cc1OC [Ste11 MAPKKK Activation Inhibitor]
[1]
  Melting temperature (Tm) shift: 0.1 degrees Celcius
[13]
  Melting temperature (Tm) shift: 0.0 degrees Celcius
[2]
  Melting temperature (Tm) shift: 0.5 degrees Celcius
[3]
  Melting temperature (Tm) shift: 10.6 degrees Celcius
[5]
  Melting temperature (Tm) shift: 0.1 degrees Celcius
[6]
  Melting temperature (Tm) shift: 0.0 degrees Celcius
[15]
  Melting temperature (Tm) shift: 0.1 degrees Celcius
[7]
  Melting temperature (Tm) shift: 0.1 degrees Celcius
[8]
  Melting temperature (Tm) shift: 0.4 degrees Celcius
[9]
  Melting temperature (Tm) shift: 0.3 degrees Celcius
[10]
  Melting temperature (Tm) shift: 0.6 degrees Celcius
[11]
  Melting temperature (Tm) shift: 0.7 degrees Celcius
[12]
  Melting temperature (Tm) shift: 0.4 degrees Celcius

## O=C1NC(=O)C(c2cn(CCCn3ccnc3)c3ccccc23)=C1Nc1ccccc1 [PKCb Inhibitor]
[1]
  Melting temperature (Tm) shift: 0.4 degrees Celcius
[2]
  Melting temperature (Tm) shift: 0.1 degrees Celcius
[3]
  Melting temperature (Tm) shift: 2.0 degrees Celcius
[4]
  Melting temperature (Tm) shift: 0.0 degrees Celcius
[5]
  Melting temperature (Tm) shift: 0.5 degrees Celcius
[6]
  Melting temperature (Tm) shift: 0.0 degrees Celcius
[9]
  Melting temperature (Tm) shift: 0.3 degrees Celcius
[10]
  Melting temperature (Tm) shift: 1.7 degrees Celcius
[12]
  Melting temperature (Tm) shift: 1.6 degrees Celcius

## COc1cc2ncnc(Nc3ccc(NC(=O)c4ccccc4)cc3)c2cc1OC [Aurora Kinase Inhibitor II]
[1]
  Melting temperature (Tm) shift: 0.1 degrees Celcius
[2]
  Melting temperature (Tm) shift: 0.7 degrees Celcius
[3]
  Melting temperature (Tm) shift: 7.0 degrees Celcius
[14]
  Melting temperature (Tm) shift: 0.1 degrees Celcius
[5]
  Melting temperature (Tm) shift: 0.1 degrees Celcius
[15]
  Melting temperature (Tm) shift: 0.1 degrees Celcius
[7]
  Melting temperature (Tm) shift: 0.2 degrees Celcius
[8]
  Melting temperature (Tm) shift: 0.3 degrees Celcius
[9]
  Melting temperature (Tm) shift: 0.9 degrees Celcius
[10]
  Melting temperature (Tm) shift: 0.4 degrees Celcius
[11]
  Melting temperature (Tm) shift: 0.4 degrees Celcius
[12]
  Melting temperature (Tm) shift: 0.1 degrees Celcius

## CN[C@@H]1C[C@H]2O[C@@](C)([C@@H]1OC)n1c3ccccc3c3c4c(c5c6ccccc6n2c5c31)C(=O)N[C@@H]4O [UCN-01]
[1]
  Melting temperature (Tm) shift: 5.2 degrees Celcius
[13]
  Melting temperature (Tm) shift: 6.2 degrees Celcius
[2]
  Melting temperature (Tm) shift: 0.4 degrees Celcius
[3]
  Melting temperature (Tm) shift: 1.7 degrees Celcius
[14]
  Melting temperature (Tm) shift: 3.2 degrees Celcius
[6]
  Melting temperature (Tm) shift: 7.4 degrees Celcius
[15]
  Melting temperature (Tm) shift: 6.8 degrees Celcius
[7]
  Melting temperature (Tm) shift: 1.3 degrees Celcius
[8]
  Melting temperature (Tm) shift: 5.9 degrees Celcius
[9]
  Melting temperature (Tm) shift: 7.6 degrees Celcius
[10]
  Melting temperature (Tm) shift: 12.7 degrees Celcius
[11]
  Melting temperature (Tm) shift: 1.2 degrees Celcius
[12]
  Melting temperature (Tm) shift: 5.9 degrees Celcius

## CS(=O)(=O)O.Cn1cc(C2=C(c3cn(CCCSC(=N)N)c4ccccc34)C(=O)NC2=O)c2ccccc21 [Ro-31-8220]
[1]
  Melting temperature (Tm) shift: 1.0 degrees Celcius
[13]
  Melting temperature (Tm) shift: 1.5 degrees Celcius
[2]
  Melting temperature (Tm) shift: 0.2 degrees Celcius
[3]
  Melting temperature (Tm) shift: 6.6 degrees Celcius
[14]
  Melting temperature (Tm) shift: 1.6 degrees Celcius
[6]
  Melting temperature (Tm) shift: 0.9 degrees Celcius
[15]
  Melting temperature (Tm) shift: 1.6 degrees Celcius
[7]
  Melting temperature (Tm) shift: 0.8 degrees Celcius
[8]
  Melting temperature (Tm) shift: 0.5 degrees Celcius
[9]
  Melting temperature (Tm) shift: 1.8 degrees Celcius
[10]
  Melting temperature (Tm) shift: 2.9 degrees Celcius
[11]
  Melting temperature (Tm) shift: 0.0 degrees Celcius
[12]
  Melting temperature (Tm) shift: 4.8 degrees Celcius

## O=C(Nc1cccc(Nc2nccc(Nc3cccc(C(F)(F)F)c3)n2)c1)C1CC1 [Aurora Kinase Inhibitor III]
[1]
  Melting temperature (Tm) shift: 0.2 degrees Celcius
[13]
  Melting temperature (Tm) shift: 0.8 degrees Celcius
[2]
  Melting temperature (Tm) shift: 0.2 degrees Celcius
[3]
  Melting temperature (Tm) shift: 0.4 degrees Celcius
[14]
  Melting temperature (Tm) shift: 0.1 degrees Celcius
[5]
  Melting temperature (Tm) shift: 0.2 degrees Celcius
[6]
  Melting temperature (Tm) shift: 0.0 degrees Celcius
[15]
  Melting temperature (Tm) shift: 1.1 degrees Celcius
[7]
  Melting temperature (Tm) shift: 0.3 degrees Celcius
[8]
  Melting temperature (Tm) shift: 0.2 degrees Celcius
[9]
  Melting temperature (Tm) shift: 0.1 degrees Celcius
[10]
  Melting temperature (Tm) shift: 0.4 degrees Celcius
[11]
  Melting temperature (Tm) shift: 0.0 degrees Celcius
[12]
  Melting temperature (Tm) shift: 0.9 degrees Celcius

## O=C1NC(=O)C(=Cc2ccc(-c3ccc(F)cc3O)o2)S1 [PI 3-Kγ/CKII Inhibitor]
[13]
  Melting temperature (Tm) shift: 0.9 degrees Celcius
[2]
  Melting temperature (Tm) shift: 0.0 degrees Celcius
[3]
  Melting temperature (Tm) shift: 2.5 degrees Celcius
[4]
  Melting temperature (Tm) shift: 0.2 degrees Celcius
[5]
  Melting temperature (Tm) shift: 0.2 degrees Celcius
[15]
  Melting temperature (Tm) shift: 1.3 degrees Celcius
[7]
  Melting temperature (Tm) shift: 0.5 degrees Celcius
[8]
  Melting temperature (Tm) shift: 0.1 degrees Celcius
[9]
  Melting temperature (Tm) shift: 0.3 degrees Celcius
[10]
  Melting temperature (Tm) shift: 0.5 degrees Celcius
[11]
  Melting temperature (Tm) shift: 0.1 degrees Celcius
[12]
  Melting temperature (Tm) shift: 0.3 degrees Celcius
